For one assay, the target named is T1, human oxytocin receptor (Homo sapiens, UniProt P30559).
T1 construct: host or cells: CHO cells (pcDNA3.1 vector)
T1 sequence (P30559 1-389): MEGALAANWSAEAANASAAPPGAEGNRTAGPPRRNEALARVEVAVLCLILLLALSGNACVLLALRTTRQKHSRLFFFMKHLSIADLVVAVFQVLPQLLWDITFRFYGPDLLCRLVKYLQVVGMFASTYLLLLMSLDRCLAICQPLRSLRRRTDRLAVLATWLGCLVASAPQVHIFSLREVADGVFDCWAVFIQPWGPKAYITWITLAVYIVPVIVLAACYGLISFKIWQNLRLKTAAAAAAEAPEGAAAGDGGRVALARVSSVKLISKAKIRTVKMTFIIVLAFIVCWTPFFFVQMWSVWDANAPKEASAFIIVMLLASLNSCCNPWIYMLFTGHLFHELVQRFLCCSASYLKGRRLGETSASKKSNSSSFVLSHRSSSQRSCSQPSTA
As to the kind of experiment: Oxytocin binding in Chinese Hamster Ovary cell membranes expressing human oxytocin receptors. Conditions: 100 nM, CHO cell membranes, [3H]oxytocin, values without parentheses. As for the experimental part: Oxytocin Binding in Chinese Hamster Ovary Cell Membranes Expressing Human Oxytocin Receptors
The trypsin is removed by aspiration and the cells dislodged by tapping. Cell Culture medium (e.g. 30 mL for 1:30 split) is immediately added and mixed well to inactivate trypsin. 1 mL of detached cells is added to new culture flasks containing fresh Cell Culture medium (e.g. into 25 mL per T-150 flask), and mixed gently. The cells are incubated at 37° C. in 5% CO2. The medium is changed at 3 to 4 days interval (or as appropriate). […] All steps are done under sterile conditions. B. Membrane Preparation: The cells are washed twice gently with Hank's Balanced Salt solution (e.g., use 10 mL per T-150 flask). […] The contents are transferred to centrifuge tubes (50 mL size) kept in ice bath. All subsequent steps are done at 4° C. The tubes are centrifuged at 300×g for 15 min (1380 rpm on SORVAL, Model RT6000D, using rotor for 50 mL tubes). The supernatant is discarded and the cells suspended in homogenizing buffer (10 mM Tris-HCl containing 0.25 M sucrose and 1 mM EDTA, pH 7.4) ensuring that the volume of the buffer is about ten times the volume of the cell pellet. The cells are pooled into a centrifuge tube (50 mL) and homogenized with a Polytron at setting 6 for 10 sec. The homogenate is transferred into a Potter-Elvjehm homogenizer and homogenized with 3 strokes. The homogenate is centrifuged at 1500×g for 10 min at 4° C. (3100 rpm using SORVAL, model RT6000D, using rotor for 50 mL tubes). The pellet is discarded. The supernatant is centrifuged at 100,000×g for 60 min. at 4° C. (Beckman L8-80M ultracentrifuge; spin at 37,500 rpm with rotor type 70 Ti for 50 mL tubes; 38,000 rpm with type 80Ti for 15 mL tubes; or 35,800 rpm with rotor type 45Ti). The supernantant is discarded and the pellet suspended in 3 to 4 mL of Tris buffer (50 mM TRIS-HCl, pH 7.4). The protein content is estimated by the Bradford or Lowry method. The volume of the membrane suspension is adjusted with the membrane buffer (50 mM Tris-HCl containing 0.1% BSA and 0.1 mM PMSF) to give 3.0 mg/mL (or as appropriate) of protein. The membranes are aliquoted and stored at −70° C. C. Radioligand Binding Assay: In wells of a 96-well format microtiter plate, is added 90, 110 or 130 μL (to make up a final volume of 200 μL) of assay buffer containing 50 mM of Tris-HCl (pH 7.4), […], 1 mg % aprotinin, 1 mg % leupeptin, 2 mg % 1,10-phenanthroline, 10 mg % trypsin inhibitor, and 0.1 mM PMSF. The inhibitors are added on the day of the experiment. The components are mixed at room temperature, and then kept in ice bath following adjustment of the pH to 7.4. […] For oxytocin and other peptide ligands, 20 μL of 50% DMSO is added and the assay buffer volume is adjusted accordingly. To each well is added 50 μL of frozen membrane suspension thawed immediately prior to use and diluted in assay buffer to the required concentration (equivalent to 25 to 50 μg of protein/well as needed). 20 μL of 8 nM [^3H]oxytocin in the assay buffer, prepared just before use is added and incubated at room temperature for 60 min. shaking the plate on a mechanical shaker for the first 15 min. The incubation is stopped by rapid filtration of the plate contents followed by washing with ice-cold buffer (50 mM Tris-HCl, pH 7.4) using a cell harvester (Tomtek and Printed filtermat-B filter paper). The filter paper is thoroughly dried (7–12 min. in a microwave oven) and impregnated with MeltiLex B/H melt-on scintillation wax sheets and the radioactivity counted in a betaplate scintillation counter.
Binding data is either reported as percent inhibition at a certain concentration or if an IC50 was calculated, as a nanomolar concentration.
“{10-[(2,2′-Dimethoxy[1,1′-biphenyl]-4-yl)carbonyl]-10,11-dihydro-5H-pyrrolo[2,1-c][1,4]benzodiazepin-3-yl}(4-isopropyl-1-piperazinyl)methanone [Example 244]”: the “OT % inhibition @ 100% nM” value is 68%.

For the compound `COc1cccc(-c2ccc(C(=O)N3Cc4ccc(C(=O)N5CCN(CCN(C)C)CC5)n4Cc4ccccc43)cc2C)c1` [Example 199, {4-[2-(Dimethylamino)ethyl]-1-piperazinyl{}10-[(3′-methoxy-2-methyl[1,1′-biphenyl]-4-yl)carbonyl]-10,11-dihydro-5H-pyrrolo[2,1-c][1,4]benzodiazepin-3-yl}methanone], the “OT % inhibition @ 100% nM” value was 84%.

For `COc1cc2c(cc1OC)N(C(=O)c1ccc(-c3ccccc3C(F)(F)F)c(C)c1)Cc1ccc(C(=O)N3CCC(=O)CC3)n1C2` [Example 14, 7,8-Dimethoxy-10-{[2-methyl-2′-(trifluoromethyl)-[1,1′-biphenyl]-4-yl]carbonyl}-[(10,11-dihydro-5H-pyrrolo[2,1-c][1,4]benzodiazepin-3-yl)carbonyl]-4-piperidinone], the “OT % inhibition @ 100% nM” value came to 9%.

With `Cc1ccccc1-c1ccc(C(=O)N2Cc3ccc(C(=O)N4CCC[C@H]4CN4CCCC4)n3Cc3ccccc32)cc1` [Example 264, {10-[(2′-Methyl[1,1′-biphenyl]-4-yl)carbonyl]-10,11-dihydro-5H-pyrrolo[2,1-c][1,4]benzodiazepin-3-yl}[(2S)-2-(1-pyrrolidinylmethyl)pyrrolidinyl]methanone], the “OT % inhibition @ 100% nM” value came to 94%.

As for `COc1cccc(-c2ccc(C(=O)N3Cc4ccc(C(=O)NCCC5CCCN5C)n4Cc4ccccc43)cc2C)c1` (centres unmarked) [Example 164, 10-[(3′-Methoxy-2-methyl[1′1′-biphenyl]-4-yl)carbonyl]-N-[2-(1-methyl-2-pyrrolidinyl)ethyl]-10,11-dihydro-5H-pyrrolo[2,1-c][1,4]benzodiazepine-3-carboxamide], the “OT % inhibition @ 100% nM” value is recorded as 54%.

Still in this assay, the particulars now being: 100 nM, CHO cell membranes, [3H]oxytocin, values without parentheses, read-out: OT % inhibition @ 100% nM.
With `Cc1cc(C(=O)N2Cc3ccc(C(=O)NCCCn4ccnc4)n3Cc3ccccc32)ccc1-c1ccccc1C(F)(F)F` [Example 135, N-[3-(1H-Imidazol-1-yl)propyl]-10-{[2-methyl-2′-(trifluoromethyl)[1,1′-biphenyl]-4-yl]carbonyl}-10,11-dihydro-5H-pyrrolo[2,1-c][1,4]benzodiazepine-3-carboxamide], the inhibition (in general, the change of the read-out against control, counted positive when it falls) at 0.1 µM was 24%.

On to `COc1ccccc1-c1ccc(C(=O)N2Cc3ccc(C(=O)N4CCC(N5CCCCC5)CC4)n3Cc3ccccc32)cc1OC` [Example 119, {10-[(2,2′-Dimethoxy-[1,1′-biphenyl]-4-yl)carbonyl]-10,11-dihydro-5H-pyrrolo[2,1-c][1,4]benzodiazepin-3-yl}[4-(1-piperidinyl)-1-piperidinyl]methanone], for which the inhibition at 0.1 µM was found to be 58%.

Consider `COc1cc(C(=O)N2Cc3ccc(C(=O)N4CCC(N5CCCCC5)CC4)n3Cc3ccccc32)ccc1-c1cccc2ccccc12` [Example 118, {10-[3-Methoxy-4-(1-naphthyl)-benzoyl]-10,11-dihydro-5H-pyrrolo[2,1-c][1,4]benzodiazepin-3-yl}[4-(1-piperidinyl)-1-piperidinyl]methanone], for which the inhibition at 0.1 µM stood at 54%.

Regarding `COc1ccccc1-c1ccc(C(=O)N2Cc3ccc(C(=O)N4CCC(N5CCCC5)CC4)n3Cc3ccccc32)cc1C` [Example 137, {10-[(2′-Methoxy-2-methyl[1,1′-biphenyl]-4-yl)carbonyl]-10,11-dihydro-5H-pyrrolo[2,1-c][1,4]benzodiazepin-3-yl}[4-(1-pyrrolidinyl)-1-piperidinyl]methanone], the inhibition at 0.1 µM amounted to 88%.

With `COc1ccccc1-c1ccc(C(=O)N2Cc3ccc(C(=O)NCCCn4ccnc4)n3Cc3ccccc32)cc1` [Example 126, N-[3-(1H-Imidazol-1-yl)propyl]-10-[(2′-methoxy[1,1′-biphenyl]-4-yl)carbonyl]-10,11-dihydro-5H-pyrrolo[2,1-c][1,4]benzodiazepine-3-carboxamide], the inhibition at 0.1 µM was 43%.

As for `COc1cc(C(=O)N2Cc3ccc(C(=O)NCCCn4ccnc4)n3Cc3ccccc32)ccc1-c1cccc2ccccc12` [Example 131, N-[3-(1H-Imidazol-1-yl)propyl]-10-[3-methoxy-4-(1-naphthyl)benzoyl]-10,11-dihydro-5H-pyrrolo[2,1-c][1,4]benzodiazepine-3-carboxamide], the inhibition at 0.1 µM stood at 26%.

Consider `COc1cc(C(=O)N2Cc3ccc(C(=O)N4CCC(N5CCCC5)CC4)n3Cc3ccccc32)ccc1-c1cccc2ccccc12` [Example 144, {10-[3-Methoxy-4-(1-naphthyl)benzoyl]-10,11-dihydro-5H-pyrrolo[2,1-c][1,4]benzodiazepin-3-yl}[4-(1-pyrrolidinyl)-1-piperidinyl]methanone], for which the inhibition at 0.1 µM came to 53%.

Consider `Cc1ccccc1-c1ccc(C(=O)N2Cc3ccc(C(=O)N4CCC(N5CCCC5)CC4)n3Cc3ccccc32)cc1` [Example 141, {10-[(2′-Methyl[1,1′-biphenyl]-4-yl)carbonyl]-10,11-dihydro-5H-pyrrolo[2,1-c][1,4]benzodiazepin-3-yl}[4-(1-pyrrolidinyl)-1-piperidinyl]methanone], for which the inhibition at 0.1 µM is -6%.

Take `COc1cccc(-c2cc(OC)c(C(=O)N3Cc4ccc(C(=O)N5CCC(N6CCCCC6)CC5)n4Cc4ccccc43)cc2Cl)c1` [Example 117, {10-[(6-Chloro-3-methoxy-3′-methoxy[1,1′-biphenyl]-4-yl)carbonyl]-10,11-dihydro-5H-pyrrolo[2,1-c][1,4]benzodiazepin-3-yl}[4-(1-piperidinyl)-1-piperidinyl]methanone]: the inhibition at 0.1 µM amounted to 70%.

For the compound `COc1cccc(-c2ccc(C(=O)N3Cc4ccc(C(=O)N(C)CCCN(C)C)n4Cc4ccccc43)cc2OC)c1` [Example 108, 10-[(2,3′-Dimethoxy[1,1′-biphenyl]-4-yl)carbonyl]-N-[3-(dimethylamino)propyl]-N-methyl-10,11-dihydro-5H-pyrrolo[2,1-c][1,4]benzodiazepine-3-carboxamide], the inhibition at 0.1 µM turned out to be 96%.

Take `COc1ccccc1-c1ccc(C(=O)N2Cc3ccc(C(=O)NCCN4CCCCC4)n3Cc3ccccc32)cc1` [Example 152, 10-[(2′-Methoxy[1,1′-biphenyl]-4-yl)carbonyl]-N-[2-(1-piperidinyl)ethyl]-10,11-dihydro-5H-pyrrolo[2,1-c][1,4]benzodiazepine-3-carboxamide]: the inhibition at 0.1 µM is 63%.

For the compound `COc1cc(-c2ccccc2C)c(Cl)cc1C(=O)N1Cc2ccc(C(=O)NCCN3CCCCC3)n2Cc2ccccc21` [Example 155, 10-[(6-Chloro-3-methoxy-2′-methyl[1,1′-biphenyl]-4-yl)carbonyl]-N-[2-(1-piperidinyl)ethyl]-10,11-dihydro-5H-pyrrolo[2,1-c][1,4]benzodiazepine-3-carboxamide], the inhibition at 0.1 µM was 56%.
